Among the data in patent US7045320B2, “Methods for producing L-amino acids” (priority 2001, dated 2006) are Ki values, retold here.

pKi: −log10 of the molar value.

Holding throughout (format): biochemical
The target of experiment [1] is T1, TrpE0 mutant anthranilate synthase (Escherichia coli, UniProt P00895, K50E).
T1 construct: endogenous in cells; host or cells: 5-methyltryptophan-resistant mutant of E. coli K12 YMC9 (gene later cloned as pE0)
In words: Ki value of anthranilate synthase (AS) to L-tryptophan, TrpE0. The protocol: (§1) Following the culture for 24–48 hours at 37° C., 5-methyltryptophan resistant clones were seeded on the aforementioned agar medium. In order to examine properties of the obtained mutant strain, Ki value of AS to L-tryptophan was measured (Bauerle R. et al., Methods in Enzymology, 142, pp.366–386, 1987). As a result, the mutant strains could be classified into two classes. The class 1 mutant strains had feedback resistant anthranilate synthase. […] The AS genes of these mutant strains were cloned and their nucleotide sequences were determined. Chromosomal DNA of each mutant strain was isolated and digested with restriction enzymes NheI and ClaI to isolate a fragment of about 5 kb, and this fragment was ligated with the NheI/ClaI fragment (4158 bp) of pBR322.
(§2) E. coli KB 862 (trpE) (DSM7196) was transformed with the ligation reaction product. A clone that could grow on a minimal medium not containing L-tryptophan was selected. All the plasmids complementing the trpE mutation contained the NheI/ClaI fragment of 5 kb. Further, this 5 kb NheI/ClaI fragment contained trpE, trpD, a sequence about 0.8 kb upstream from trpE, and a sequence about 1 kb downstream from trpD. Differences in amino acid sequences of mutant AS encoded by plasmids (pE0, pE5, pE6, pE8) contained in the mutant strains and their Ki values are shown in Table 1.

Experiment [2] deals with T2, TrpE6 mutant anthranilate synthase (Escherichia coli, UniProt P00895, K50E/S40F).
T2 construct: endogenous in cells; host or cells: 5-methyltryptophan-resistant mutant of E. coli K12 YMC9 (gene later cloned as pE6)
T2 sequence (P00895 whole entry S40F/K50E): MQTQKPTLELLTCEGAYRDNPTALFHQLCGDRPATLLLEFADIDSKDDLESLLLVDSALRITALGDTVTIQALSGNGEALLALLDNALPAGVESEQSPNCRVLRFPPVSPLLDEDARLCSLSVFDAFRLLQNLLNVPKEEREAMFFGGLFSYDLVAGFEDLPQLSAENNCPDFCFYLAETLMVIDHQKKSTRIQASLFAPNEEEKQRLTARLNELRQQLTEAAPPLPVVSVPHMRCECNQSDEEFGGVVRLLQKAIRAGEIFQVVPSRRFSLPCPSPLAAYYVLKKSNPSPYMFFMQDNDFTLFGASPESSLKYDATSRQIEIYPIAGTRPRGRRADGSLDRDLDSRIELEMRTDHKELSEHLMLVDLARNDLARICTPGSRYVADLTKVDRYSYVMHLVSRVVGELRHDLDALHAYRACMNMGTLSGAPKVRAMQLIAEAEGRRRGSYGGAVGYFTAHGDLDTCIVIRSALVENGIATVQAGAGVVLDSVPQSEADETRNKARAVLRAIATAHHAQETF
T2 sequence (P00904 2-531, further chain): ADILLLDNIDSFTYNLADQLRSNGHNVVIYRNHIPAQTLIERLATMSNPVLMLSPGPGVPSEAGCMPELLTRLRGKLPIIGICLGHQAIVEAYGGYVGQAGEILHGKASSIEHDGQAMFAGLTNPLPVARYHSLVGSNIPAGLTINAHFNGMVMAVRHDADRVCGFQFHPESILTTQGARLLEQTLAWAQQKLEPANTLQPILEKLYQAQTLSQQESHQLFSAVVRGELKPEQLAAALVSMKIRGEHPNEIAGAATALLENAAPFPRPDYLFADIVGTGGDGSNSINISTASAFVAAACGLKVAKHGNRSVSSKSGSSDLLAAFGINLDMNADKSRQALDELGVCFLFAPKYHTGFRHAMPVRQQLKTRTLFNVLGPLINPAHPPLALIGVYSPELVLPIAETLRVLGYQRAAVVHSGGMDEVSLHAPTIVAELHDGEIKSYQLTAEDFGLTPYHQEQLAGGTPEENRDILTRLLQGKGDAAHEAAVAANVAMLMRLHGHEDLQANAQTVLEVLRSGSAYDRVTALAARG
Kind of experiment: Ki value of anthranilate synthase (AS) to L-tryptophan, TrpE6. The procedure: as §1, §2

For experiment [3], the target named is T3, Wild type trpE anthranilate synthase (Escherichia coli, UniProt P00895).
T3 construct: endogenous in cells
T3 sequence (P00904 2-531): as the sequence (P00904 2-531, further chain) above
T3 sequence (P00895 whole entry): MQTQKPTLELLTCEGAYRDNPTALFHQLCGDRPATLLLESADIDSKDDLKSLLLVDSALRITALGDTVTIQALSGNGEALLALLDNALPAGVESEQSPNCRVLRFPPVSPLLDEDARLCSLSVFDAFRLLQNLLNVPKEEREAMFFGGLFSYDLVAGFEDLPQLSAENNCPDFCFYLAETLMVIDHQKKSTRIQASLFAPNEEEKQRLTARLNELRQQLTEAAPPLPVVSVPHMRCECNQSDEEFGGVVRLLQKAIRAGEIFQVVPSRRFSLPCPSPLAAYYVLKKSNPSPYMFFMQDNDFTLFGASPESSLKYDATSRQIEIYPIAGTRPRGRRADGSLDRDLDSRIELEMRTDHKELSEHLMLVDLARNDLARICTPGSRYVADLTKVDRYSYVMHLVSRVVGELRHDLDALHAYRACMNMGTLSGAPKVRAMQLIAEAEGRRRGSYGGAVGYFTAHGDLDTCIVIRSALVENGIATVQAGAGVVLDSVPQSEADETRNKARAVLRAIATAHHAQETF
Kind of experiment: Ki value of anthranilate synthase (AS) to L-tryptophan, wild type. The protocol: as §1, §2

Experiment [4] concerns the target T4, TrpE5 mutant anthranilate synthase (Escherichia coli, UniProt P00895, P21S).
T4 construct: endogenous in cells; host or cells: 5-methyltryptophan-resistant mutant of E. coli K12 YMC9 (gene later cloned as pE5)
In words: Ki value of anthranilate synthase (AS) to L-tryptophan, TrpE5. The protocol: as §1, §2

T4 sequence (P00904 2-531): as the sequence (P00904 2-531, further chain) above
T4 sequence (P00895 whole entry P21S): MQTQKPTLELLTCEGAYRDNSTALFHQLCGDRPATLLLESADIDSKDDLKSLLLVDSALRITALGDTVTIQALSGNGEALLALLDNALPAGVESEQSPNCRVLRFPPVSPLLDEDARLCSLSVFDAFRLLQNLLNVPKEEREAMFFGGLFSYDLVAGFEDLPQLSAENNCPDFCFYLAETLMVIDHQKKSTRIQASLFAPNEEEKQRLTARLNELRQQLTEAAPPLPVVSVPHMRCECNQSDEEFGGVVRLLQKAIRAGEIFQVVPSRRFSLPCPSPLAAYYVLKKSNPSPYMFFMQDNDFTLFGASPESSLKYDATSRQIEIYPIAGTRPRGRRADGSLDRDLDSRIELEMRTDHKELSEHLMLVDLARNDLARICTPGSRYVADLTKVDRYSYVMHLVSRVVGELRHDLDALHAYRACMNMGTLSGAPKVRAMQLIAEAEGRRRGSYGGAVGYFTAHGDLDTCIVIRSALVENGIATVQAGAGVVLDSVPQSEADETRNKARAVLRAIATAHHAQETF
T1 sequence (P00904 2-531): as the sequence (P00904 2-531, further chain) above
T1 sequence (P00895 whole entry K50E): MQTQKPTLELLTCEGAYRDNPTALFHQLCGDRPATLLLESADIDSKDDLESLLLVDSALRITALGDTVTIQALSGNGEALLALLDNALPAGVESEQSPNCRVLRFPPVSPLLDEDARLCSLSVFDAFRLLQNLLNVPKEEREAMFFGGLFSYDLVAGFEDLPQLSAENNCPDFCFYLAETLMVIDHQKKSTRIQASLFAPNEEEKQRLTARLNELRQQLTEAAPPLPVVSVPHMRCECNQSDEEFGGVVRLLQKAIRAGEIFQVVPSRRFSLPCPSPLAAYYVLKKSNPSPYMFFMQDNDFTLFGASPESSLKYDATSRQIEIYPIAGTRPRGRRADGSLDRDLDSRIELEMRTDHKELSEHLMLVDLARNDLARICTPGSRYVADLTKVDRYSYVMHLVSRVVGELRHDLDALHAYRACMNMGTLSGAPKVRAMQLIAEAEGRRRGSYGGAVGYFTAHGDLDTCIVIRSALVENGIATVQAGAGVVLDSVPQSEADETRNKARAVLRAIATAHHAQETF

For the compound `N[C@@H](Cc1c[nH]c2ccccc12)C(=O)O` [L-tryptophan], the pKi in experiment [1] is 4.00; in experiment [2], less than 1.82; in experiment [3], 5.00; in experiment [4], 2.52.

Usually pKi stands for the negative decadic logarithm of the Ki, by convention in mol/L. The low end stands for a large Ki, the high end for a small Ki.
